Test results taken from publication PMC3090687 (Journal of medicinal chemistry, 2011).

Assay: in vivo pharmacokinetics in mice, intravenous and oral
Set-up: species or system mouse

| SMILES | oral bioavailability, in words (oral administration) | improvement of bioavailability compared to compound 1 (oral, comparison with ref 22) |
| --- | --- | --- |
| CCC(=O)N1CCN(c2ccc(-n3c(=O)ccc4cnc5ccc(-c6cnc7ccccc7c6)cc5c43)cc2C(F)(F)F)CC1 [Compound 1, 1-(4-(4-propionylpiperazin-1-yl)-3-(trifluoromethyl)phenyl)-9-(quinolin-3-yl)benzo[h][1,6]naphthyridin-2(1H)-one] | very limited oral bioavailability |  |
| Nc1ccc(-c2ccc3ncc4ccc(=O)n(-c5cccc(C(F)(F)F)c5)c4c3c2)cn1 [Compound 3, 9-(6-aminopyridin-3-yl)-1-(3-(trifluoromethyl)phenyl)benzo[h][1,6]naphthyridin-2(1H)-one] |  | approximately 10 fold |
